From patent US5959123A, “3,4-Disubstituted azetidin-2-one derivatives useful as cysteine proteinase regulators” (Synphar Laboratories, Inc., priority 1997, dated 1999)

How the values were obtained:
[1] = target: cathepsin B (Rattus norvegicus, UniProt P00787); test: In vitro assay for cathepsin B inhibition; assay type: biochemical; settings: r rat cathepsin B; pH 5.1; 10 min incubation at room temperature; substrate N-CBZ-Phe-Arg-AMC (5 mM, 20 μl)
Procedure: The compounds of formula I were tested for inhibition of cathepsin B using the known method (A. J. Barret et al., Biochem. J. 1982, 201, 189-198). To a 170 μl of enzyme-buffer mixture (enzyme: r rat cathepsin B, diluted to give approximate 10 F units/min, buffer: 56 mM sodium acetate, 1.124 mM EDTA, 10 mM DTT, pH 5.1) a 10 μL of inhibitor (dissolved in DMSO) was added. After 10 min of incubation at room temperature, a 20 μl of 5 mM substrate (N-CBZ-Phe-Arg-AMC, dissolved in DMSO) was added to initiate reaction. Reading is followed up for 10 min at the fluoroscan reader (excitation at 380 nm emission at 460 nm).
(§1) A plot of percentage of inhibition vs inhibitor concentration is obtained, and IC50 is determined using a linear regression calculation (concentration of inhibitor which will give 50% inhibition).

[2] = target: cathepsin L (Rattus norvegicus, UniProt P07154); test: In vitro assay for cathepsin L inhibition; assay type: biochemical; settings: r rat cathepsin L; pH 5.0; 10 min incubation at room temperature; substrate N-CBZ-Phe-Arg-AMC (1 mM, 20 μl)
cathepsin L, sequence (P07154 114-334): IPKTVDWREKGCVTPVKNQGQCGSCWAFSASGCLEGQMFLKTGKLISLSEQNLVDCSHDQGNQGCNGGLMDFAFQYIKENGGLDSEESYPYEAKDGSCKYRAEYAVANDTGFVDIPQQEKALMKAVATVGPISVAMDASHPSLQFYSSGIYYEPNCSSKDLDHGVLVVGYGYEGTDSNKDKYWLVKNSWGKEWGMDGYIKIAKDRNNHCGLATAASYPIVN
Procedure: To a 170 μl of enzyme-buffer mixture (enzyme: r rat cathepsin L, diluted to give approximate 15 F units/min, buffer: 58.8 mM sodium citrate, 1.18 mM EDTA, 235 mM sodium chloride, 5 mM DTT, pH 5.0) a 10 μL of inhibitor (dissolved in DMSO) was added. After 10 min of incubation at room temperature, a 20 μl of 1 mM substrate (N-CBZ-Phe-Arg-AMC, dissolved in DMSO) was added to initiate reaction. Reading is followed up for 10 min at the fluoroscan reader (excitation at 380 nm emission at 460 nm).
as §1

cathepsin B, sequence (P00787 80-333 limits assumed): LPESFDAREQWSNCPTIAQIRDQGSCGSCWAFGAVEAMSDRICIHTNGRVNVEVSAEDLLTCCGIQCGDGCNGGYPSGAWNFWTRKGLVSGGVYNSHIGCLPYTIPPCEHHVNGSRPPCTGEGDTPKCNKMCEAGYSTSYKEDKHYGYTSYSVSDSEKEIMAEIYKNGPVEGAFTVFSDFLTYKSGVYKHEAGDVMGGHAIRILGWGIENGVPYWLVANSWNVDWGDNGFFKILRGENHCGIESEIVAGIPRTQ

SMILES	IC50 [1] [µM]	IC50 [2] [µM]
CC(=O)O[C@@H]1NC(=O)[C@H]1NC(=O)[C@H](Cc1ccc2ccccc2c1)NC(=O)NCc1ccccc1 [Example 21, (3S,4S)-3-{N-(benzylaminocarbonyl)-β-(2-naphthyl)-L-alanyl}-amino-4-acetoxy-azetidin-2-one]	2.2	0.01
N[C@@H](Cc1ccc(OC2NC(=O)[C@H]2NC(=O)[C@H](Cc2ccc3ccccc3c2)NC(=O)NCc2ccccc2)cc1)C(=O)O (stereo partly drawn) [Example 22, (3S,4SR)-3-{N-(benzylaminocarbonyl)-β-(2-naphthyl)-L-alanyl}-amino-4-{4-(2S-2-amino-2-carboxy-ethyl)-phenoxy}-azetidin-2-one]	8.4	0.013
CC(=O)O[C@@H]1NC(=O)[C@H]1NC(=O)[C@H](CCCNC(N)=O)NC(=O)CCc1ccccc1 [Example 23, (3S,4S)-3-{N-(3-phenylpropionyl)-L-citrullinyl}-amino-4-acetoxy-azetidin-2-one]	11	11.5
CC(=O)O[C@@H]1NC(=O)[C@H]1NC(=O)[C@H](CCCN=C(N)N[N+](=O)[O-])NC(=O)CCc1ccccc1 [Example 24, (3S,4S)-3-{N^α -(3-phenylpropionyl)-N-nitro-L-arginyl}-amino-4-acetoxy-azetidin-2-one]	31.4	0.0168
O=C(CCc1ccccc1)N[C@@H](Cc1ccc2c(c1)OCCO2)C(=O)N[C@@H]1C(=O)N[C@H]1Oc1ccccc1 [Example 31]	9.7	0.08

Next, values leading:

IC50 [1] [µM]	IC50 [2] [µM]	SMILES
11	2.19	CC(C)(C)OC[C@H](NC(=O)OCc1ccccc1)C(=O)N[C@@H]1C(=O)N[C@@H]1Oc1ccccc1 [Example 25, (3S,4R)-3-(2S-2-benzyloxycarbonylamino-2-t-butyloxymethyl-acetamido)-4-phenoxy-azetidin-2-one]
> 50	10.7	CC(OC(C)(C)C)[C@H](NC(=O)OCc1ccccc1)C(=O)N[C@@H]1C(=O)N[C@@H]1Oc1ccccc1 (stereo partly drawn) [Example 26, (3S, 4R)-3-[2S-2-benzyloxycarbonylamino-2-(1-t-butyloxyethyl)-acetamido]-4-phenoxy-azetidin-2-one]
23	2.3	CC(C)(C)C[C@H](NC(=O)OCc1ccccc1)C(=O)N[C@@H]1C(=O)N[C@H]1Oc1ccccc1 [Example 27, (3S, 4S)-3-(2S-2-benzyloxycarbonylamino-2-t-butylmethyl-acetamido)-4-phenoxy-azetidin-2-one]
45	11.4	CC(C)(C)C[C@H](NC(=O)CCc1ccccc1)C(=O)N[C@@H]1C(=O)N[C@H]1Oc1ccccc1 [Example 28, (3S, 4S)-3-[2S-2-(3-phenylpropionoyl)amino-2-t-butylmethyl-acetamido]-4-phenoxy-azetidin-2-one]
> 50	> 50	CC(C)(C)[C@H](NC(=O)CCc1ccccc1)C(=O)N[C@@H]1C(=O)N[C@H]1Oc1ccccc1 [Example 29, (3S, 4S)-3-[2S-2-(3-phenylpropionoyl)amino-2-t-butyl-acetamido]-4-phenoxy-azetidin-2-one]
48	1.6	COc1ccc(C[C@H](NC(=O)CCc2ccccc2)C(=O)N[C@@H]2C(=O)N[C@H]2Oc2ccccc2)cc1OC [Example 30, (3S, 4s)-3-[2S-2-(3-phenylpropionoyl)amino-2-(3,4-dimethoxyphenyl)methyl-acetamido]-4-phenoxy-azetidin-2-one]
